# Reference: patent US20250136584A1, “Benzimidazole Or Azabenzimidazole Compound, Preparation Method Therefor And Use Thereof” (Chengdu Di'Ao Jiuhong Pharmaceutical Factory, priority 2022, published 2025)
# pEC50: −log10 of the molar value.
# Assays:
# hERG potassium channel = molecular target: T1, hERG potassium channel (Homo sapiens, UniProt Q12809); test: hERG test, patch clamp on HEK-293 cells stably expressing hERG potassium channel; assay type: cell-based; conditions: HEK-293 cell line stably expressing hERG, read-out: IC50 (μM) of inhibitory effect on hERG potassium channel current
# T1 construct: host or cells: HEK-293 stably expressing hERG
# T1 sequence (Q12809 whole entry): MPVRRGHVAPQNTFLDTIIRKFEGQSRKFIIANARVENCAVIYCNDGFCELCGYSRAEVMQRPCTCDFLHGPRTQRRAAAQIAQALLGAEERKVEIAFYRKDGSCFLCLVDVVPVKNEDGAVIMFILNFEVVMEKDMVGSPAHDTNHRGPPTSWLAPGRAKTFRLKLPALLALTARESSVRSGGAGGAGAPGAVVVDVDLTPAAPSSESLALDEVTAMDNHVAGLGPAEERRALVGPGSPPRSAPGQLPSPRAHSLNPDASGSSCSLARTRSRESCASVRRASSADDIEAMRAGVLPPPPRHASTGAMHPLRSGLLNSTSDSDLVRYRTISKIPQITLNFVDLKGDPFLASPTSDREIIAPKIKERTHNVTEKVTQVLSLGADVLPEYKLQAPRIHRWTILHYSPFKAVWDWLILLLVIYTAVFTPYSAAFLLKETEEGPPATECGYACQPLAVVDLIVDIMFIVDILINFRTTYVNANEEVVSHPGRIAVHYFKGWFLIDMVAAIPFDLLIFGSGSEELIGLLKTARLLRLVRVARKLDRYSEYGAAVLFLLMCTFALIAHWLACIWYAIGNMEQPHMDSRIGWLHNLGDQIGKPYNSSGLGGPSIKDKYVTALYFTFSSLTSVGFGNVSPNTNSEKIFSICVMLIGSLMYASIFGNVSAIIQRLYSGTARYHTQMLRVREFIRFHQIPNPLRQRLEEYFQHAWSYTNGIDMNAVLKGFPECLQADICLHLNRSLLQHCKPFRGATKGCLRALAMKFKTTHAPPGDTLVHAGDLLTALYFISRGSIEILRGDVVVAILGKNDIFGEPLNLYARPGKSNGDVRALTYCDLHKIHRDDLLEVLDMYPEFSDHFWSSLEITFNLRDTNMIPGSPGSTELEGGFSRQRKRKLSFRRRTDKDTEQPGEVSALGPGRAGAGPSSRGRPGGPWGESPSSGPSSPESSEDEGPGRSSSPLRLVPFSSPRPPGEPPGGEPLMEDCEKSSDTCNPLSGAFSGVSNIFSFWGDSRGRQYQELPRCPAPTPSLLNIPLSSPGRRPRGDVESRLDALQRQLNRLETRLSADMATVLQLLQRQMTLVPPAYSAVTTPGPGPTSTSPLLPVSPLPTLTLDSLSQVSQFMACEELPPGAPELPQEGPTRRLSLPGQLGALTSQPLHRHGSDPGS
# Protocol: Test object: influences of compounds on an hERG potassium channel current were tested by a full-automatic patch clamp method.
# • (1) An HEK-293 cell line stably expressing an hERG potassium channel was adopted, and hERG potassium channel cells were purchased from Creacell Company. • (2) The HEK-293 cell line stably expressing the hERG potassium channel was cultured in a DMEM culture medium containing 10% fetal bovine serum and 0.8 mg/mL G418 at 37° C. under a carbon dioxide concentration of 5%. • (3) Cell passage: the old culture medium was removed, and the cells were washed once with PBS, then added with 1 mL of TrypLE™ Express solution, and incubated at 37° C. for about 0.5 minutes. When the cells were separated from a dish bottom, about 5 mL of complete culture medium preheated at 37° C. was added. A cell suspension was gently blown with a straw to separate the aggregated cells. The cell suspension was transferred to a sterile centrifuge tube and centrifuged at 1000 rpm for 5 minutes to collect the cells. In amplification or maintenance of culture, the cells were inoculated into a 6 cm cell culture dish, and the number of cells inoculated into each cell culture dish was 2.5×10^5 cells (final volume: 5 mL). In order to maintain an electrophysiological activity of cells, a cell density should not exceed 80%. • (4) In patch clamp detection, before the test, the cells were separated by TrypLE™ Express, and 4×10^3 cells were spread on a cover slip and cultured in a 24-well plate (final volume: 500 μL). After 18 hours, the test was carried out for detection. Data analysis:
# A current after an effect of each drug concentration and a blank control current
# were standardized first, and then an inhibition rate
# corresponding to each drug concentration was calculated. A mean number and a standard error were calculated for each concentration, and a semi-inhibitory concentration of each compound was calculated by the following equation: […]
# A dosage-dependent effect was nonlinearly fitted by the above equation, wherein C represented a concentration of a test sample, IC50 represented a semi-inhibitory concentration, and h represented a Hill coefficient. Curve fitting and IC50 calculation were completed by IGOR software.
# hGLP1R mice = test: Glucose tolerance test in hGLP1R mice after single oral administration; assay type: in vivo; conditions: 1 mg/kg oral once; for onset of blood glucose reduction compared with comparative example compound DB03 / blood glucose reduction effect compared with comparative example compound DB03: FIG. 3 and FIG. 4; for blood glucose reduction effect compared with PF-06882961: glucose 2 g/kg i.p. 60 minutes later
# Protocol: Genetically engineered hGLP1R mice, male, purchased from Biocytogen Jiangsu Gene Biotechnology Co., Ltd., were fasted overnight before the glucose tolerance test (IPTGG), without water deprivation. A solvent or corresponding compound was orally administered once, a glucose solution (2 g/kg) was intraperitoneally injected 60 minutes after administration, and a blood glucose value before administration of glucose (equivalent to a blood glucose value of 0 minute) and blood glucose values 15 minutes, 30 minutes, 60 minutes and 120 minutes after administration of glucose were measured. The solvent was 5% DMSO+40% PEG400+55% physiological saline, and a dosage of the compound was 1 mg/kg (n=3).
# [1] = Pharmacokinetic studies in SD rats; assay type: in vivo; conditions: Sprague-Dawley (SD), rat, plasma
# GLP1R = GLP1R (Homo sapiens, UniProt P43220); test: Agonist activity on GLP1R/CRE-LUC HEK293 cells (luciferase reporter, ONE-Glo); assay type: cell-based; conditions: for pEC50: GLP1R/CRE-LUC HEK293 cells, 6 hours incubation, chemiluminescence signal; for activity compared with comparative example compounds PF-06882961, DB02, DB03 and DB06: from Table 1, also much higher than DB04 and DB05
# Sequence of GLP1R (P43220 24-463): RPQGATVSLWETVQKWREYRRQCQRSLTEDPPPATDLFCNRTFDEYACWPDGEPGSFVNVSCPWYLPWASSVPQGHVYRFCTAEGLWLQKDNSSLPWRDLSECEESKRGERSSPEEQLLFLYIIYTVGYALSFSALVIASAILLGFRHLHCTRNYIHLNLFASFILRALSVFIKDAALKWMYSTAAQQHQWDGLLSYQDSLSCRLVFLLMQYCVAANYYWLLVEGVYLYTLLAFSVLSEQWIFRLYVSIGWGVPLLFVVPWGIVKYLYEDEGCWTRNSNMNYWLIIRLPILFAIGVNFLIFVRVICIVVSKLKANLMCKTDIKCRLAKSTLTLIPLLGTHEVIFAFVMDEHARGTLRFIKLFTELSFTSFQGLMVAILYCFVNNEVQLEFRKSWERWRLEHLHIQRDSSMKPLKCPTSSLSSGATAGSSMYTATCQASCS
# Protocol: Logarithmically growing GLP1R/CRE-LUC HEK293 cells (purchased from Nanjing Cobioer) were digested, the digested cells were re-suspended in a DMEM+10% FBS culture medium, and a cell density was adjusted to be 3.5*10^5/mL. The cell solution was added into a 96-well cell culture plate by 100 µL/well, and the plate was cultured overnight in an incubator (37° C., 5% CO2).
# A compound was dissolved with DMSO to prepare a storage solution at an initial concentration of 10 mM, an initial concentration of the small molecular compound was 0.2 mM, and the compound was diluted by 3 times and 10 points were diluted, while the 11th point was DMSO. Another 96-well plate was taken, added with 95 μL of cell culture solution (DMEM+10% FBS) in each well, then added with 5 μL of to-be-tested samples at different concentrations in each well, mixed evenly, and then added with 11 μL of to-be-tested samples at different concentrations in each well of the cell culture plate, and each sample had two wells. The culture plate was incubated in an incubator for 6 hours (37° C., […]). The 96-well cell culture plate was taken out, added with 100 μL of ONE-Glo™ reagent in each well, and incubated at room temperature for 10 minutes, and a chemiluminescence signal value was measured with an enzyme-labeled instrument. Data were processed and analyzed by Microsoft Excel and Graphpad Prism6 to obtain an EC50 value of the compound.
# [2] = blood glucose curves and AUC (0 to 120 minutes)
Structure (SMILES),IC50 (hERG potassium channel) [µM],onset of blood glucose reduction compared with comparative example compound DB05 (hGLP1R mice; FIG. 1 and FIG. 2),onset of blood glucose reduction compared with comparative example compound DB03 (hGLP1R mice),blood glucose reduction effect compared with PF-06882961 (hGLP1R mice; [2]),"blood glucose reduction effect compared with comparative example compound DB05 (hGLP1R mice; blood glucose curves and AUC (0 to 120 minutes), FIG. 1 and FIG. 2)",blood glucose reduction effect compared with comparative example compound DB03 (hGLP1R mice; [2]),half-life [1] [h],pEC50 (GLP1R),"activity compared with comparative example compounds PF-06882961, DB02, DB03 and DB06 (GLP1R)"
O=C(O)c1ccc2nc(Cc3ccc(-c4cccc(OCc5ccc(Cl)c6ccoc56)n4)cc3F)n(C[C@@H]3CCO3)c2c1 [Compound 17],> 30,took effect more quickly,took effect more quickly,significantly better,significantly better,absolutely better,,,
O=C(O)c1ccc2nc(Cc3ccc(-c4cccc(OCc5ccc(Cl)c6cc(F)oc56)n4)cc3F)n(C[C@@H]3CCO3)c2c1 [Compound 21],> 30,,,significantly better,,,6 to 10,9.02,higher
O=C(O)c1ccc2nc(Cc3ccc(-c4ccc(F)c(OCc5ccc(Cl)c6ccoc56)n4)cc3F)n(C[C@@H]3CCO3)c2c1 [Compound 93],> 30,,took effect more quickly,significantly better,,absolutely better,6 to 10,8.54,higher
O=C(O)c1ccc2nc(Cc3ccc(-c4ccc(F)c(OCc5ccc(Cl)c6cc(F)oc56)n4)cc3F)n(C[C@@H]3CCO3)c2c1 [Compound 94],> 30,,,significantly better,,,6 to 10,9.05,higher
O=C(O)c1ccc2nc(Cc3ccc(-c4cccc(OCc5ccc(Cl)c6cc(Cl)oc56)n4)cc3F)n(C[C@@H]3CCO3)c2c1 [Compound 99],> 30,,,significantly better,,,6 to 10,,
O=C(O)c1ccc2nc(Cc3ccc(-c4ccc(F)c(OCc5ccc(Cl)c6cc(Cl)oc56)n4)cc3F)n(C[C@@H]3CCO3)c2c1 [Compound 100],> 30,,took effect more quickly,significantly better,,absolutely better,6 to 10,8.69,higher
"O=C(O)c1ccc2nc(Cc3ccc(-c4cccc(OCc5ccc(Cl)cc5F)n4)cc3F)n(C[C@@H]3CCO3)c2c1 [DB03, reference compound]",> 10,,,,,,2.94,,
"N#Cc1ccc(COc2cccc(C3CCN(Cc4nc5ccc(C(=O)O)cc5n4C[C@@H]4CCO4)CC3)n2)c(F)c1 [PF-06882961, reference compound]",9.35,,,,,,3.13,,
